Where “and” joins values, the source holds several entries; their conditions need not be identical. Equal values may be shown once. Read-outs that look alike come from different tables or passages of the source.
Tests used:
[1] = Viscosity measurements (Bohlin Rheometer), screening and optimization phases; format: physicochemical; conditions: sorbitol 9.9 molal, fructose 16.6 molal, sucrose 5.3 molal (highest concentrations studied)
Procedure: 2. Viscosity Measurements
In the screening and optimization phases, described below, viscosity measurements were made using a Bohlin Rheometer, under the following conditions: a 10.0 pascal sheer stress and a continuous, single sweep type at a temperature of 25.0° C.

[2] = Water activity (Pawkit water activity meter); format: physicochemical; conditions: sorbitol 9.9 molal, fructose 16.6 molal, sucrose 5.3 molal
Procedure: A Pawkit water activity meter uses a dielectric humidity sensor to measure the water activity (aw) of a sample. The unit is accurate to ±0.02 aw. The water activity meter was calibrated, using a 6.0 molal NaCl solution, before each new set of measurements was taken. Each sample was measured in duplicate.

[3] = cited from earlier work

SMILES | Viscosity of solution [1] | Water activity of solution [2] | Dosage with laxative effect ([3]; adults) | Dosage with laxative effect ([3]; children)
OC[C@H]1O[C@@](CO)(O[C@H]2O[C@H](CO)[C@@H](O)[C@H](O)[C@H]2O)[C@@H](O)[C@@H]1O [sucrose] | 119 cps | 0.86 | – | –
O=C(CO)[C@@H](O)[C@H](O)[C@H](O)CO [fructose] | 429 cps and 439 cps | 0.70 | – | –
OC[C@@H](O)[C@@H](O)[C@H](O)[C@@H](O)CO [sorbitol] | 48 cps | 0.81 | ≥ 20 grams/day | greater than 0.5 g/kg body weight
